Results published in PubChem BioAssay AID179 (DTP/NCI, 2004).
Calls of active or inactive are those of the source.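 Rule for the calls: active = compounds giving half or more protection of infected cells from virus-caused growth loss, again on retest; inactive = the rest.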 *1 amine or outer side, *2 acyl side, *3 side chain or, on linkers, in order; H or OH if unused. Where a SMILES comes first, the peptide text is derived from it. Bridges are numbered along the chain shown (N, C = ends). [ ]: non-standard residue; d: D form. The star is where a group is joined. ξ: configuration not given here. Fmoc = O=C(OCC1c2ccccc2-c2ccccc21)*; X2 = O=C(C(CCCCNO[*:3])N[*:1])[*:2]; ξW = NC(Cc1c[nH]c2ccccc12)C(=O)O; ξP = O=C(O)C1CCCN1

System: CEM cells HIV-1 protection, formazan growth assay
Assay: NCI AIDS Antiviral Assay
Details: for IC50: measured here: growth of uninfected CEM cells
How it was run: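 Five concentrations of each compound were applied to infected and uninfected human CEM cells. Protection from HIV-1 was judged from growth measured with a soluble formazan assay.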

| Structure (SMILES) | EC50 [µM] | IC50 [µM] | outcome |
| --- | --- | --- | --- |
| Cc1c2c(Cl)c3c(c(Cl)c2c(C)c2c(Cl)c4c(c(Cl)c12)C(c1ccccc1)(c1ccccc1)C4(c1ccccc1)c1ccccc1)C(c1ccccc1)(c1ccccc1)C3(c1ccccc1)c1ccccc1 | > 100 | > 100 | – |
| C=CC(=O)N1CN(C(=O)C=C)CN(C(=O)C=C)C1 | > 200 | 1.15 | – |
| Cc1cccc(NP2(=O)NCCCN2)c1 | 316 | 398 | – |
| C=CCOCC1C2CCC3(OCCO3)C21 (centres undefined) | > 200 | 148 | – |
| CC(=O)OC1C[C@@H](C)C2(CC(c3ccoc3)OC2=O)C2CCC(O)C3(CO3)C12CO (some centres undefined) | > 200 | > 200 | – |
| COC1/C=C/OC2(C)Oc3c(C)c(O)c4c(O)c(cc(OCC(=O)N(C)C)c4c3C2=O)NC(=O)/C(C)=C/C=C/C(C)C(O)C(C)C(O)C(C)C(OC(C)=O)C1C (centres undefined) | > 200 | 31.6 | – |
| CC1CC(Nc2ccc(NC3=CC(=O)OC(C)C3)cc2)=CC(=O)O1 (centres undefined) | > 200 | > 200 | – |
| CN1C(=O)C2CCC1n1c(=O)n(-c3ccccc3)c(=O)n12 (centres undefined) | – | – | inactive |
| Fc1ccc(/C=N\N=C(N/N=C/c2ccc(F)cc2)N/N=C/c2ccc(F)cc2)cc1 | > 200 | 19.5 | – |
| CSCC1Cc2c(cc3c(c2O)C(=O)c2ccccc2C3=O)O1 (centres undefined) | – | – | inactive |
| CCOP(=O)(OCC)C(Cc1ccc(OC)cc1)NC(=O)C(CC(C)C)NC(=O)OCc1ccccc1 (centres undefined) | > 126 | 8.91 | – |
| Cc1ccc(S(=O)(=O)c2ccc([N+](=O)[O-])o2)cc1 | 0.02 | 0.0631 | – |
| CC(=O)OC1CC(OC(C)=O)[C@@]2(C)C[C@@H]3C(C)C(=O)O[C@H]3CC(C)C12 (some centres undefined) | > 74.1 | 42.7 | – |
| CC1CCCCN1CC(=O)c1ccc2c(c1)Sc1ccccc1O2 (centres undefined) | > 200 | 8.13 | – |
| CCc1ccccc1NC(=O)CCc1n[nH]c(=S)o1 | 44.7 | 67.6 | – |
| O=S(=O)(Cc1ccccc1)C(I)c1ccccc1 (centres undefined) | > 69.2 | 13.8 | – |
| O=C(Nc1nc(C23CC4CC(CC(C4)C2)C3)cs1)c1cc2cc(Br)cc(Br)c2oc1=O | > 200 | 135 | – |
| N#C/C(=C\c1cc(Br)c(O)c(Br)c1)c1ccccn1 | > 200 | 31.6 | – |
| COc1ccccc1N=Nc1c(S(=O)(=O)O)cc2cc(NC(=O)Nc3ccc4c(O)c(N=Nc5c(N)ccc6cc(S(=O)(=O)O)ccc56)c(S(=O)(=O)O)cc4c3)ccc2c1O | – | – | active |
| CC(=O)C(C)[P+](c1ccccc1)(c1ccccc1)c1ccccc1 (centres undefined) | > 200 | 39.8 | – |
| O=C1CSC(/C=C/c2ccccc2)N1c1ccc(-n2c(-c3ccccc3)nc3ccccc3c2=O)cc1 (centres undefined) | > 200 | 105 | – |
| O=C(O)c1ccccc1C(=O)CCC(=O)c1ccccc1C(=O)O | > 200 | > 200 | – |

| Structure (SMILES) | EC50 [µM] | IC50 [µM] | outcome |
| --- | --- | --- | --- |
| O=c1cc(-c2ccc(O)cc2)oc2cc(O[C@@H]3O[C@H](CO)[C@@H](O)[C@H](O)[C@H]3O)cc(O)c12 | > 200 | 4.57 | – |
| COc1ccc2c(c1)c1c3c(ccc4ncn2c43)N(CCO)CCN=1 | > 100 | 0.178 | – |
| O=C1NN=C(c2ccc(Cl)cc2)CC1C1C(=O)N(c2ccccc2)N=C1c1ccccc1 (centres undefined) | > 100 | 49 | – |
| Cc1occc1C(=S)Nc1ccc(Cl)c(OCC(=O)OC(C)(C)C)c1 | 12.9 | 28.2 | – |
| C=CCN(N=O)C(=O)N(CCCC(NC(C)=O)C(=O)NCc1ccccc1)Cc1ccccc1 (centres undefined) | > 40.7 | > 40.7 | – |
| COc1cc(CNc2nc3c(N)cc(C(F)(F)F)cc3nc2-c2ccccc2)cc(OC)c1OC | > 20.4 | > 20.4 | – |
| Cc1ccc(NC(=O)CC(=O)n2nc(-c3ccccc3)c(N=Nc3ccc(Cl)cc3)c2-c2ccccc2)cc1 | > 9.77 | > 9.77 | – |
| CCCCCCCCCCCCCCCCCC(=O)NCC(COP(=O)([O-])OCC[N+](C)(C)C)OCC (centres undefined) | – | – | inactive |
| CSc1nc[nH]c1C(N)=S | > 200 | > 200 | – |
| CSc1nncc2[nH]c(C)nc12 | > 200 | > 200 | – |
| NCCN.O=N[O-].O=N[O-].O=N[O-].O=N[O-].[Co+3].[K+] | > 724 | 219 | – |
| COC(=O)C(Cc1nc2ccc(Cl)cc2[nH]c1=O)C(=O)C(=O)Nc1ccccc1[N+](=O)[O-] (centres undefined) | > 148 | > 148 | – |
| C/C(=N\N=C(/C)C1CC(CC(=O)O)C1(C)C)C1CC(CC(=O)O)C1(C)C (centres undefined) | > 186 | > 186 | – |
| Cc1cccc(NC(=O)c2cc3cc(N=Nc4ccc(Br)cc4)ccc3oc2=O)c1 | – | – | inactive |
| CC(c1ccccc1)N1CC(=O)N([C@H](C)c2ccccc2)C1=O (some centres undefined) | > 200 | > 200 | – |
| C=CCC1C(=O)Nc2cccc3ncn(c23)C1=O (centres undefined) | > 200 | 186 | – |
| CCOC(=O)/C=C/c1ccc(Br)cc1 | > 28.2 | > 28.2 | – |
| COc1ccc(/S(C)=N/S(=O)(=O)c2ccc(C)cc2)cc1 (centres undefined) | > 288 | 263 | – |
| Cn1c(-c2ccccc2)c(CCNC(=O)C2CCC2)c2ccccc21 | > 200 | 31.6 | – |
| Oc1ccccc1C=Nc1ccccc1S.[Cu+2] | > 151 | 2.57 | – |
| COc1ccc(C=O)c(NC(=O)C(C)C)c1 | – | – | inactive |
| O=C1C=CC(=C(c2ccc(O)cc2)c2ccc(O)cc2)C=C1 | – | – | inactive |

| Structure (SMILES) | EC50 [µM] | IC50 [µM] | outcome |
| --- | --- | --- | --- |
| O=C1CCN(CCC(F)(F)C(F)(F)C(F)(F)C(F)(F)F)C(=S)N1 | > 26.3 | > 26.3 | – |
| O=c1nc(-c2ccccc2)scc1-c1ccccc1 | > 38 | > 38 | – |
| COc1cc2c(cc1OC)C1Cc3ccc(OC)c(OC)c3C[N+]1([O-])CC2 (centres undefined) | > 135 | > 135 | – |
| Cc1c(-c2ccccc2)[nH]n(C2=NCCN2)c1=O | > 200 | 120 | – |
| CN=c1nc2n3c(cccc3n1)NC(C)=N2 | > 100 | > 100 | – |
| COC(=O)C1=C(CS(=O)c2ccccc2[N+](=O)[O-])C2C=CC1C2 (centres undefined) | – | – | inactive |
| [CH3][Sn]([CH3])([Cl])[CH2]C(P(=O)(c1ccccc1)c1ccccc1)P(=O)(c1ccccc1)c1ccccc1 | > 50.1 | 2.29 | – |
| CCCCC[C@H](O)[C@H](C)C=C1SCCCS1 | > 200 | 97.7 | – |
| NS(=O)(=O)c1ccc(NC(=S)/N=C\c2c(O)[nH]c(=O)[nH]c2=O)cc1 | > 200 | > 200 | – |
| O=C1CC(c2c[nH]c3ccccc23)C(=O)N1c1ccccc1 (centres undefined) | – | – | inactive |
| Cc1nc(Nc2nc3ccccc3[nH]2)[nH]c(=O)c1CCO | > 200 | > 200 | – |
| C/C(=N\N=C(N)N)C(CN1CCOCC1)C(c1ccccc1)c1c(O)c2ccccc2oc1=O (centres undefined) | > 52.5 | > 52.5 | – |
| CC1CC(C#N)=C2NCCCCN2C1=O (centres undefined) | – | – | inactive |
| COc1cc(=O)cc2n(c1=O)CCC2 | > 447 | > 447 | – |
| CCCCCCCCCCCCCCCC(=O)NC(Cc1ccc(O)cc1)C(=O)O (centres undefined) | > 100 | 50.1 | – |
| CCOC(=O)C(CC#N)(NC(C)=O)C(=O)OCC | > 200 | > 200 | – |
| NC(=O)CNC(=O)C1CCCN1C(=O)C1CCCCNOC(=O)CC[C@@H](NC(=O)OCC2c3ccccc3-c3ccccc32)C(=O)NC(Cc2c[nH]c3ccccc23)C(=O)N1 (some centres undefined) (Fmoc-[dE][ξW][X2][ξP]G-NH2; ester 1-3) | > 100 | > 100 | – |
| CN(c1ccccc1)c1nc(=[N+](C)C)ss1 | – | – | inactive |
| Cc1ccccc1NS(=O)(=O)c1c(N)ncn1C | > 832 | > 832 | – |
| COc1ccccc1C(=O)NCC1CCCN2CCCCC12 (centres undefined) | > 200 | > 200 | – |
| O=C(NCCCN1CCN(CCCNC(=O)c2ccc(N=Nc3ccccc3)cc2)CC1)c1ccc(N=Nc2ccccc2)cc1 | > 100 | 53.7 | – |
| O=C(O)CSC(=S)N1CCCC1 | > 200 | 102 | – |

| Structure (SMILES) | EC50 [µM] | IC50 [µM] | outcome |
| --- | --- | --- | --- |
| N#CC(c1ccccc1)[P+](c1ccccc1)(c1ccccc1)c1ccccc1 (centres undefined) | > 200 | 141 | – |
| COc1ccc2cccc(C(=O)c3ccc(C)c4c3CCC4)c2c1 | – | – | inactive |
| CCOCN1COCN=C1NC#N | > 490 | > 490 | – |
| O=C(CCc1nnc2s/c(=C\c3ccccc3Cl)c(=O)n12)Nc1cc(Cl)ccc1Cl | > 525 | > 525 | – |
| C=CCN(CC=C)C(=O)COc1cc2c(O)c3c(O)c(C)c4c(c13)C(=O)C(C)(O/C=C\C(OC)C(C)C(OC(C)=O)C(C)C(O)C(C)C(O)C(C)/C=C\C=C(\C)C(=O)N2)O4 (centres undefined) | > 200 | 17 | – |
| O=C1CCc2c(Cl)sc(Cl)c21 | > 331 | 151 | – |
| CN(C)C(=O)C(CC[N+]1(C)CCCC12CCCCC2)(c1ccccc1)c1ccccc1 (centres undefined) | > 200 | 74.1 | – |
| Cc1cc2nc(-c3ccccn3)c(-c3ccccn3)nc2cc1C | > 200 | > 200 | – |
| COc1ccc(NCc2cnc3nc(N)nc(N)c3c2C)cc1 | > 200 | 0.437 | – |
| CN(C)CCCNc1c(C#N)[n+]([O-])c2cc(Cl)ccc2[n+]1[O-] | > 2 | 1 | – |
| Cc1cn(C2CC(C)N(CCO)O2)c(=O)[nH]c1=O (centres undefined) | > 200 | > 200 | – |
| Fc1ccc(C=NC23CC4CC(CC(C4)C2)C3)cc1 | > 28.2 | > 28.2 | – |
| COc1cc(C2C3C=CC=C4CC=CC(=C43)C3CCC(=O)N32)cc(OC)c1OC (centres undefined) | > 200 | > 200 | – |
| CC(C)(C)c1cc2c(OP(c3ccccc3)c3ccccc3)c(c1)Cc1cc(C(C)(C)C)cc(c1OP(c1ccccc1)c1ccccc1)Cc1cc(C(C)(C)C)cc(c1OP(c1ccccc1)c1ccccc1)Cc1cc(C(C)(C)C)cc(c1OP(c1ccccc1)c1ccccc1)C2 | > 1.05 | > 1.05 | – |
| COc1cc(CCC(=O)CC(=O)CCc2ccc(O)c(OC)c2)ccc1O | > 200 | 34.7 | – |
| CO/C(=C/C(=O)c1ccccc1)C(=O)c1ccccc1 | > 115 | 61.7 | – |
| COc1cc2ccnc(-c3n[nH]c4cc(OC)c(OC)cc34)c2cc1OC | – | – | inactive |
| O=C(O)c1cc2ccc(O)c(O)c2cn1 | > 56.2 | 2.04 | – |
| NC(N)=NN=C1CCCCC1 | > 200 | > 200 | – |
| SCc1ccc(CS)s1 | > 741 | > 741 | – |
